Reference: patent US12029728B2, “Small molecules with anti-protozoan activity” (New Mexico Tech University Research Park Corporation, priority 2018, dated 2024)

Test system: PBMC cells
Assay: MTT toxicity assay on PBMC / monocyte-derived macrophages
Format: cell-based, Human
Details: 5 (μM) MTF, 48 hours
Description: Human peripheral blood mononuclear cells (PBMC) were plated onto polylysine-coated glass slides in 24-well plates and allowed to differentiate towards monocyte-derived macrophages (MDMs). Non-adherent cells were removed 48-hours post plating. Adherent monocytes were left to further differentiate for another 48 hours to MDMs. Following the completion of the differentiation period, MDMs were treated with vehicle control (DMSO), […], or 10 μM of Compound 1, Compound 3, Compound 4, Compound 6, Compound 7, Compound 8, Compound 9, Compound 10, or Compound 11 for 48 hours.

## CCCCCCCCCCCCCCCCOP(=O)([O-])OCC[N+](C)(C)C [MTF, miltefosine]
  toxicity to PBMC cells (MTT): not toxic
